These results are taken from ChEMBL document CHEMBL3244025, “Carbocyclic arabinosyladenine, an adenosine deaminase resistant antiviral agent” (J Med Chem, 1977).

Data set [1] is described as follows: Stability of the compound assessed as calf intestinal adenosine deaminase type 3-mediated deamination. Particulars: cattle. Type of data set: ADME, Bos taurus.
Data set [2] in a line: Stability of the compound assessed as calf intestinal adenosine deaminase type 3-mediated deamination in presence of C-ara-A. The settings on record: cattle. It counts as ADME, Bos taurus.
In a further data set the test system is P388. In words: Cytotoxicity against mouse P388 cells after 72 hrs by hemocytometric analysis. Type of data set: functional.
A short description of data set [3]: Cytotoxicity against human Hep2 cells. Particulars: hep-2. Type of data set: cell-based.
The test system of a further data set is Human alphaherpesvirus 1. In words: Antiviral activity against Herpes simplex virus type 1 HF infected in human Hep2 cells assessed as inhibition of virus-induced cytopathogenic effect. Type of data set: functional, HEp-2.

As for `Nc1ncnc2c1ncn2[C@@H]1O[C@H](CO)[C@@H](O)[C@@H]1O` [VIDARABINE], the Stability result in data set [1] and in data set [2] was “Unstable” in each case. Moreover, the LD50 with P388 turned out to be 1 ×10⁻⁵ M.

The molecule `Nc1ncnc2c1ncn2[C@@H]1C[C@H](CO)[C@@H](O)[C@@H]1O` (racemic) came in with an Activity in data set [3] of 9 µg/mL. Also, the MED50 with Human alphaherpesvirus 1 stood at 2.8 µg/mL. Moreover, the Stability result in data set [1] is recorded as “Stable”. Besides, the LD50 with P388 amounted to 1 ×10⁻⁵ M.

`Nc1ncnc2c1ncn2[C@@H]1O[C@H](CO)[C@@H](O)[C@H]1O` [ADENOSINE]: the Stability result in data set [2] is recorded as “Unstable”.
